Assay results as given in patent US8101768B2, “Cyclic amine compound and pest control agent” (Nippon Soda Co., Ltd., priority 2004, dated 2012).

system: organophosphorous agent resistant two-spotted spider mites; test: Effect on Two-spotted Spider Mite (spray on kidney bean leaves); format: in vivo; conditions: 125 ppm, water dispersible powder of Formulation Example 1 sprayed, 17 female adults, 25° C., 65% humidity, 3 days
Text: Effect on Two-spotted Spider Mite
17 female adults of organophosphorous agent resistant two-spotted spider mites were inoculated onto the first leaves of kidney beans seeded onto 3.5 inch pots and germinated 7 to 10 days before, onto which each of liquid agents, diluted with water so as to adjust the respective concentration of the chemical compounds to 125 ppm according to the formulation of the water dispersible powder shown in the aforementioned Formulation Example 1, was sprayed. After they were left in a thermostatic chamber at 25° C. in 65% humidity for 3 days, the rate of killed adults was investigated. The examination was repeated twice. As the results, the following chemical compounds killed 100% of the adults.

Compound	rate of killed adults
CCCN(C)c1cc(C(F)(F)F)ccc1OC1CC2CCC(C1)N2c1ccc(C(F)(F)F)cn1 (centres unmarked) [2-161]	100%
CCCSc1cc(C(F)(F)F)ccc1OC1CC2CCC(C1)N2c1ccc(C(F)(F)F)cn1 (centres unmarked) [2-165]	100%
FC(F)(F)c1ccc(N2[C@@H]3CC[C@H]2C[C@@H](Oc2ccc(C(F)(F)F)cc2SCC2CC2)C3)nc1 [2-166]	100%
FC(F)(F)c1ccc(N2C3CCC2CC(Oc2ccc(C(F)(F)F)cc2C2OCCO2)C3)nc1 (stereo not drawn) [2-169, 3α-{2-([1,3]dioxolane-yl)-4-(trifluoromethyl)phenoxy}-8-[5-(trifluoromethyl)-2-pyridyl]-8-azabicyclo[3.2.1]octane]	100%
CCCOCc1cc(C(F)(F)F)ccc1OC1CC2CCC(C1)N2c1ccc(C(F)(F)F)cn1 (centres unmarked) [2-171]	100%
CC(O)COc1cc(C(F)(F)F)ccc1OC1CC2CCC(C1)N2c1ccc(C(F)(F)F)cn1 (centres unmarked) [2-173]	100%
COC(C)COc1cc(C(F)(F)F)ccc1OC1CC2CCC(C1)[N+]2([O-])c1ccc(C(F)(F)F)cn1 (centres unmarked) [2-174]	100%
CCOC(C)COc1cc(C(F)(F)F)ccc1OC1CC2CCC(C1)N2c1ccc(C(F)(F)F)cn1 (centres unmarked) [2-175]	100%
CCC(C)Oc1cc(C(F)(F)F)ccc1OC1CC2CCC(C1)N2c1ccc(C(F)(F)F)cn1 (centres unmarked) [2-177]	100%
COCC(C)Oc1cc(C(F)(F)F)ccc1OC1CC2CCC(C1)N2c1ccc(C(F)(F)F)cn1 (centres unmarked) [2-178]	100%
FC(F)(F)c1ccc(N2C3CCC2CC(Oc2ccc(C(F)(F)F)cc2OC2CCOC2)C3)nc1 (centres unmarked) [2-179]	100%
CC(F)COc1cc(C(F)(F)F)ccc1OC1CC2CCC(C1)N2c1ccc(C(F)(F)F)cn1 (centres unmarked) [2-181]	100%
CSCOc1cc(C(F)(F)F)ccc1OC1CC2CCC(C1)N2c1ccc(C(F)(F)F)cn1 (centres unmarked) [2-182]	100%
C=C(Cl)COc1cc(C(F)(F)F)ccc1OC1CC2CCC(C1)N2c1ccc(C(F)(F)F)cn1 (centres unmarked) [2-183]	100%
CCCC(O)c1cc(C(F)(F)F)ccc1OC1CC2CCC(C1)N2c1ccc(C(F)(F)F)cn1 (stereo not drawn) [2-184, 3α-[2-(1-hydroxybutyl)-4-(trifluoromethyl)phenoxy]-8-[5-(trifluoromethyl)-2-pyridyl]-8-azabicyclo[3.2.1]octane]	100%
CCC=Cc1cc(C(F)(F)F)ccc1OC1CC2CCC(C1)N2c1ccc(C(F)(F)F)cn1 (stereo not drawn) [2-186, 3α-[2-(buten-1-yl)-4-(trifluoromethyl)phenoxy]-8-[5-(trifluoromethyl)-2-pyridyl]-8-azabicyclo[3.2.1]octane]	100%
CCCCc1cc(C(F)(F)F)ccc1O[C@H]1C[C@H]2CC[C@@H](C1)N2c1ccc(C(F)(F)F)cn1 [2-187, 3α-[2-butyl-4-(trifluoromethyl)phenoxy]-8-[5-(trifluoromethyl)-2-pyridyl]-8-azabicyclo[3.2.1]octane]	100%
COCCCc1cc(C(F)(F)F)ccc1OC1CC2CCC(C1)N2c1ccc(C(F)(F)F)cn1 (centres unmarked) [2-190]	100%
COC(C)CCc1cc(C(F)(F)F)ccc1OC1CC2CCC(C1)N2c1ccc(C(F)(F)F)cn1 (centres unmarked) [2-192]	100%
CCOC(=O)c1cc(C(F)(F)F)ccc1OC1CC2CCC(C1)N2c1ccc(C(F)(F)F)cn1 (centres unmarked) [2-193]	100%
CCC(C)C(O)c1cc(C(F)(F)F)ccc1OC1CC2CCC(C1)N2c1ccc(C(F)(F)F)cn1 (centres unmarked) [2-194]	100%
CC(Br)COc1cc(C(F)(F)F)ccc1OC1CC2CCC(C1)N2c1ccc(C(F)(F)F)cn1 (centres unmarked) [2-195]	100%
CC(C)OC(=O)c1cc(C(F)(F)F)ccc1OC1CC2CCC(C1)N2c1ccc(C(F)(F)F)cn1 (centres unmarked) [2-196]	100%
CC(C)(C)OC(=O)c1cc(C(F)(F)F)ccc1OC1CC2CCC(C1)N2c1ccc(C(F)(F)F)cn1 (centres unmarked) [2-198]	100%

Compound	rate of killed adults
CC1COC(c2cc(C(F)(F)F)ccc2OC2CC3CCC(C2)N3c2ccc(C(F)(F)F)cn2)=N1 (centres unmarked) [2-199]	100%
Cc1noc(-c2cc(C(F)(F)F)ccc2OC2CC3CCC(C2)N3c2ccc(C(F)(F)F)cn2)n1 (centres unmarked) [2-200]	100%
CC1CN=C(c2cc(C(F)(F)F)ccc2OC2CC3CCC(C2)N3c2ccc(C(F)(F)F)cn2)O1 (centres unmarked) [2-201]	100%
CCON=Cc1cc(C(F)(F)F)ccc1OC1CC2CCC(C1)N2c1ccc(C(F)(F)F)cn1 (centres unmarked) [2-203]	100%
Cc1cnc(-c2cc(C(F)(F)F)ccc2OC2CC3CCC(C2)N3c2ccc(C(F)(F)F)cn2)o1 (centres unmarked) [2-205]	100%
CCC(C)OC(=O)c1cc(C(F)(F)F)ccc1OC1CC2CCC(C1)N2c1ccc(C(F)(F)F)cn1 (centres unmarked) [2-208]	100%
Cc1coc(-c2cc(C(F)(F)F)ccc2OC2CC3CCC(C2)N3c2ccc(C(F)(F)F)cn2)n1 (centres unmarked) [2-209]	100%
CC1(C)COC(c2cc(C(F)(F)F)ccc2OC2CC3CCC(C2)N3c2ccc(C(F)(F)F)cn2)=N1 (centres unmarked) [2-210]	100%
CON=Cc1cc(C(F)(F)F)ccc1OC1CC2CCC(C1)N2c1ccc(C(F)(F)F)cn1 (centres unmarked) [2-211]	100%
CC(C)=NOc1cc(C(F)(F)F)ccc1OC1CC2CCC(C1)N2c1ccc(C(F)(F)F)cn1 (stereo not drawn) [2-212, 3α-[2-isopropylideneaminoxy-4-(trifluoromethyl)phenoxy]-8-[5-(trifluoromethyl)-2-pyridyl]-8-azabicyclo[3.2.1]octane]	100%
CCC1COC(c2cc(C(F)(F)F)ccc2OC2CC3CCC(C2)N3c2ccc(C(F)(F)F)cn2)=N1 (centres unmarked) [2-220]	100%
C#CCON=Cc1cc(C(F)(F)F)ccc1OC1CC2CCC(C1)N2c1ccc(C(F)(F)F)cn1 (centres unmarked) [2-221]	100%
O=C(OC1CCCC1)c1cc(C(F)(F)F)ccc1OC1CC2CCC(C1)N2c1ccc(C(F)(F)F)cn1 (centres unmarked) [2-223]	100%
O=C(OC1CCOC1)c1cc(C(F)(F)F)ccc1OC1CC2CCC(C1)N2c1ccc(C(F)(F)F)cn1 (centres unmarked) [2-225]	100%
FC(F)(F)c1ccc(N2C3CCC2CC(Oc2ccc(C(F)(F)F)cc2ON=C2CCCC2)C3)nc1 (centres unmarked) [2-227]	100%
COCCOC(=O)c1cc(C(F)(F)F)ccc1OC1CC2CCC(C1)N2c1ccc(C(F)(F)F)cn1 (centres unmarked) [2-230]	100%
CC(C)C(C)OC(=O)c1cc(C(F)(F)F)ccc1OC1CC2CCC(C1)N2c1ccc(C(F)(F)F)cn1 (centres unmarked) [2-232]	100%
CC(CCl)OC(=O)c1cc(C(F)(F)F)ccc1OC1CC2CCC(C1)N2c1ccc(C(F)(F)F)cn1 (centres unmarked) [2-233]	100%
COCC(C)OC(=O)c1cc(C(F)(F)F)ccc1OC1CC2CCC(C1)N2c1ccc(C(F)(F)F)cn1 (centres unmarked) [2-234]	100%
C=CC(C)OC(=O)c1cc(C(F)(F)F)ccc1OC1CC2CCC(C1)N2c1ccc(C(F)(F)F)cn1 (centres unmarked) [2-235]	100%
CC(CBr)OC(=O)c1cc(C(F)(F)F)ccc1OC1CC2CCC(C1)N2c1ccc(C(F)(F)F)cn1 (centres unmarked) [2-236]	100%
O=C(OCC1CC1)c1cc(C(F)(F)F)ccc1OC1CC2CCC(C1)N2c1ccc(C(F)(F)F)cn1 (centres unmarked) [2-237]	100%
CC(OC(=O)c1cc(C(F)(F)F)ccc1OC1CC2CCC(C1)N2c1ccc(C(F)(F)F)cn1)C1CC1 (centres unmarked) [2-239]	100%
